Data on 20 compounds can be found in US20250136548A1, “FUNCTIONALIZED ALKYLAMINES” (Terran Biosciences Inc., priority 2022, published 2025).

The target of one test is T1, 5-HT2B receptor (Homo sapiens, UniProt P41595).
T1 construct: host or cells: unnamed cell lines
Put plainly: Calcium mobilization assay, agonist format, 5-HT2B receptor. The format is cell-based. As to conditions: agonist mode, % activity relative to MAX control ligand (5-HT positive control), read-out: 5-HT2B agonist efficacy @ 1 μM. As for the experimental part: (§1) • Protocol: in vitro testing at select 5-hydroxytryptamine (5-HT; serotonin) receptors was conducted.
(§2) Assay Design: Calcium Mobilization
(§3) • 1. Cell lines were expanded from freezer stocks according to standard procedures. • 2. Cells were seeded in a total volume of 20 μL into black-walled, clear-bottom, Poly-D-lysine coated 384-well microplates and incubated at 37° C. for the appropriate time prior to testing.
(§4) • 1. Assays were performed in 1×Dye Loading Buffer consisting of 1× Dye, 1× Additive A and 2.5 mM Probenecid in HBSS/20 mM Hepes. Probenicid was prepared fresh. • 2. Cells were loaded with dye prior to testing. Media was aspirated from cells and replaced with 20 μL Dye Loading Buffer. • 3. Cells were incubated for 30-60 minutes at 37° C.
(§5) • 1. For agonist determination, cells were incubated with sample to induce response. • 2. After dye loading, cells were removed from the incubator and 10 μL HBSS/20 mM Hepes was added. 3× vehicle was included in the buffer when performing agonist dose curves to define the EC80 for subsequent antagonist assays. Cells were incubated for 30 minutes at room temperature in the dark to equilibrate plate temperature. • 3. Intermediate dilution of sample stocks was performed to generate 4× sample in assay buffer. • 4. Compound agonist activity was measured on a FLIPR Tetra (MDS). Calcium mobilization was monitored for 2 minutes and 10 μL 4× sample in HBSS/20 mM Hepes was added to the cells 5 seconds into the assay.
(§6) • 1. Compound activity was analyzed using CBIS data analysis suite (ChemInnovation, CA). • 2. For agonist mode assays, percentage activity is calculated using the following formula:
(§7) % Activity=100%×(mean RFU of test sample−mean RFU of vehicle control)/(mean MAX RFU control ligand −mean RFU of vehicle control). • 3. For positive allosteric mode assays, percentage modulation was calculated using the following formula: […]

The next test deals with T2, 5-HT2A receptor (Homo sapiens, UniProt P28223).
T2 construct: host or cells: unnamed cell lines
T2 sequence (P28223 whole entry): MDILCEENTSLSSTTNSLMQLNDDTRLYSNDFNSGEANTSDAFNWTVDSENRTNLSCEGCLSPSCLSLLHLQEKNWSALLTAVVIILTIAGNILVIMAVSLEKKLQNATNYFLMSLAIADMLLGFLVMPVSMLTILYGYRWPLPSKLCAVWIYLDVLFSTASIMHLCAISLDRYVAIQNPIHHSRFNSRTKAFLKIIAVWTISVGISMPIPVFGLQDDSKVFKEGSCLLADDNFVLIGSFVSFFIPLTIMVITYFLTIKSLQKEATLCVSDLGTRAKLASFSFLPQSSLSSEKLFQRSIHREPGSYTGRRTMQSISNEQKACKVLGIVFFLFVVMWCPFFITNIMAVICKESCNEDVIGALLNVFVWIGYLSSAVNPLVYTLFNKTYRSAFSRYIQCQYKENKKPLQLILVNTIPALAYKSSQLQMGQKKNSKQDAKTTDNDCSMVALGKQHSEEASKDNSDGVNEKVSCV
Put plainly: Calcium mobilization assay, agonist format, 5-HT2A receptor. It counts as cell-based. As to conditions: agonist mode, % activity relative to MAX control ligand (5-HT positive control), read-out: 5-HT2A agonist efficacy @ 1 μM. As for the experimental part:
as §1, §2, §3, §4, §5, §6, §7
For orientation: Calcium assays in cells follow changes in intracellular calcium, usually with a dye or a luminescent sensor.

T1 sequence (P41595 whole entry): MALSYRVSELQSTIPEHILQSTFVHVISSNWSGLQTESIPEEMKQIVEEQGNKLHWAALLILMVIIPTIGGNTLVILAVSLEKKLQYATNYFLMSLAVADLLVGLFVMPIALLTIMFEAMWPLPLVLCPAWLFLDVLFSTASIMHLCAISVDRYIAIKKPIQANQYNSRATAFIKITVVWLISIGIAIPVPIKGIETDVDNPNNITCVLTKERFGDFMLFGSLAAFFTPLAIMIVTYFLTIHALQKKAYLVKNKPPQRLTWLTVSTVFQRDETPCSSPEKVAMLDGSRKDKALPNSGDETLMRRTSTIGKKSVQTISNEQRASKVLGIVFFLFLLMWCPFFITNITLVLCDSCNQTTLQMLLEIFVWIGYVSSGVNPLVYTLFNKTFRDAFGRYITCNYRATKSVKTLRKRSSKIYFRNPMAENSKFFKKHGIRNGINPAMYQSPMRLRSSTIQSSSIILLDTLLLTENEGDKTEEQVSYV

As to `CC1(O)CCN(CCn2ccc3cc(F)c(F)cc32)C1` (stereo not shown) [1-[2-(5,6-Difluoroindol-1-yl)ethyl]-3-methyl-pyrrolidin-3-ol], the activation at 1 µM at 5-HT2B receptor was -2.5%; at 5-HT2A receptor it was -0.1%.

In the case of `OC1CCN(CCn2ccc3cc(F)c(F)cc32)C1` (stereo not shown) [1-[2-(5,6-Difluoroindol-1-yl)ethyl]pyrrolidin-3-ol], the activation at 1 µM on 5-HT2B receptor is -0.7%; at 5-HT2A receptor, 2%.

In the case of `CC1(O)CCN(CCc2c[nH]c3cc(F)c(F)cc23)C1` (stereo not shown) [1-[2-(5,6-difluoro-1H-indol-3-yl)ethyl]-3-methyl-pyrrolidin-3-ol], the activation at 1 µM is -1% on 5-HT2B receptor and 1.9% on 5-HT2A receptor.

Take `CC1(O)CCN(CCn2ccc3cc(F)ccc32)C1` (stereo not shown) [1-[2-(5-Fluoroindol-1-yl)ethyl]-3-methyl-pyrrolidin-3-ol]: the values for the activation at 1 µM at 5-HT2B receptor and on 5-HT2A receptor were -1.1% and -0.3%, respectively.

For `OC1CCN(CCn2ccc3cc(F)ccc32)C1` (stereo not shown) [1-[2-(5-Fluoroindol-1-yl)ethyl]pyrrolidin-3-ol], the activation at 1 µM at 5-HT2B receptor was -1.2%; on 5-HT2A receptor it was -0.2%.

Regarding `CC1(O)CCN(CCc2c[nH]c3ccc(F)cc23)C1` (stereo not shown) [1-[2-(5-fluoro-1H-indol-3-yl)ethyl]-3-methyl-pyrrolidin-3-ol], the activation at 1 µM on 5-HT2B receptor was -1.5%; at 5-HT2A receptor it was 7.5%.

As for `OC1CCN(CCc2c[nH]c3ccc(F)cc23)C1` (stereo not shown) [1-[2-(5-fluoro-1H-indol-3-yl)ethyl]pyrrolidin-3-olethanamine], the activation at 1 µM is -0.7% on 5-HT2B receptor and 46% on 5-HT2A receptor.

For the compound `CC1(O)CCN(CCn2ccc3ccc(F)cc32)C1` (stereo not shown) [1-[2-(6-Fluoroindol-1-yl)ethyl]-3-methyl-pyrrolidin-3-ol], the figures for the activation at 1 µM on 5-HT2B receptor and at 5-HT2A receptor were -1.3% and 0%, respectively.

On to `OC1CCN(CCn2ccc3ccc(F)cc32)C1` (stereo not shown) [1-[2-(6-Fluoroindol-1-yl)ethyl]pyrrolidin-3-ol], for which the activation at 1 µM is -2.8% at 5-HT2B receptor and 2.5% at 5-HT2A receptor.

With `CC1(O)CCN(CCc2c[nH]c3cc(F)ccc23)C1` (stereo not shown) [1-[2-(6-fluoro-1H-indol-3-yl)ethyl]-3-methyl-pyrrolidin-3-ol], the activation at 1 µM on 5-HT2B receptor was -1.1%; at 5-HT2A receptor, -0.3%.

With `CN(CCn1ccc2cc(F)c(F)cc21)CCS(C)(=O)=O` [2-(5,6-Difluoroindol-1-yl)-N-methyl-N-(2-methylsulfonylethyl)ethanamine], the activation at 1 µM is -1.3% on 5-HT2B receptor and -0.5% on 5-HT2A receptor.

For `CN(CCn1ccc2cc(F)ccc21)CCS(C)(=O)=O` [2-(5-Fluoroindol-1-yl)-N-methyl-N-(2-methylsulfonylethyl)ethanamine], the activation at 1 µM on 5-HT2B receptor was -2.7%; on 5-HT2A receptor, -0.8%.

For the compound `CN(CCc1c[nH]c2ccc(F)cc12)CCS(C)(=O)=O` [2-(5-fluoro-1H-indol-3-yl)-N-methyl-N-(2-methylsulfonylethyl)ethanamine], the activation at 1 µM on 5-HT2B receptor was -0.5%; at 5-HT2A receptor, 27.3%.

Take `CN(CCn1ccc2ccc(F)cc21)CCS(C)(=O)=O` [2-(6-Fluoroindol-1-yl)-N-methyl-N-(2-methylsulfonylethyl)ethanamine]: the figures for the activation at 1 µM at 5-HT2B receptor and on 5-HT2A receptor were -1.3% and -1.2%, respectively.

`CN(CCO)CCn1ccc2cc(F)c(F)cc21` [2-[2-(5,6-Difluoroindol-1-yl)ethyl-methyl-amino]ethanol]: the activation at 1 µM on 5-HT2B receptor came to 0.1%; on 5-HT2A receptor, 6.2%.

For `CN(CCO)CCc1c[nH]c2ccc(F)cc12` [2-[2-(5-Fluoro-1H-indol-3-yl)ethyl-methyl-amino]ethanol], the activation at 1 µM is 1.2% on 5-HT2B receptor and 47.1% at 5-HT2A receptor.

`CN(CCO)CCn1ccc2cc(F)ccc21` [2-[2-(5-Fluoroindol-1-yl)ethyl-methyl-amino]ethanol]: the activation at 1 µM is -1.4% on 5-HT2B receptor and -0.2% at 5-HT2A receptor.

On to `CN(CCO)CCn1ccc2ccc(F)cc21` [2-[2-(6-Fluoroindol-1-yl)ethyl-methyl-amino]ethanol], for which the values for the activation at 1 µM at 5-HT2B receptor and on 5-HT2A receptor were 0.2% and 8.3%, respectively.

As to `COc1ccc2c3c([nH]c2c1)CCNCC3` [8-methoxy-1,2,3,4,5,6-hexahydroazepino[4,5-b]indole, reference compound], the activation at 1 µM on 5-HT2B receptor is -0.8%; at 5-HT2A receptor, 71.7%.

With `COc1ccc2c3c([nH]c2c1)CCN(C)CC3` [TBG, 8-methoxy-3-methyl-1,2,3,4,5,6-hexahydroazepino[4,5-b]indole, reference compound], the activation at 1 µM is -2.2% on 5-HT2B receptor and 18.2% on 5-HT2A receptor.
